Assay results reported in patent US20120077851A1, “Urea Derivatives as Kinase Inhibitors” (MEDOLUTION LIMITED, priority 2009, published 2012).

Experiment: Pharmacokinetics of Compound A and Regorafenib in rats
Assay type: in vivo
Settings: compared to Regorafenib

T1/2: prolonged T1/2 | clearance: significant slower clearance | pharmacokinetic profile (FIG. 1, rats): better pharmacokinetic profile | exposure (oral administration route at equal dose): improved exposure
Compound: [2H]C([2H])([2H])NC(=O)c1cc(Oc2ccc(NC(=O)Nc3ccc(Cl)c(C(F)(F)F)c3)c(F)c2)ccn1 [Compound A, 4-(4-(3-(4-chloro-3-(trifluoromethyl)phenyl)ureido)-3-fluorophenoxy)-N-d3-methylpicolinamide]
